According to ChEMBL document CHEMBL1156434, “A nonpeptidic agonist of glucagon-like peptide 1 receptors with efficacy in diabetic db/db mice” (Proc Natl Acad Sci U S A, 2007):
Blank lines part the entries; values can stand above or below the molecule they belong to. Calls of active or inactive are those of the source. The calls are words filed in the database; no cut-off is given here.

What was measured:
[1] = system: Mus musculus; assay: Suppression of food intake in ip dosed C57BL/6 mouse after 12 hrs; type: functional
[2] = species on record: Mus musculus; assay: Decrease in fasting insulin in C57BL/6-m+/+Leprdb mouse at 1 mg; type: functional, organism-based
[3] = species on record: Mus musculus; assay: Effect on glycemia in C57BL/6-m+/+Leprdb mouse assessed as fasting glucose normalization at 2 mg; type: functional, organism-based
[4] = target: T1, Glucagon-like peptide 1 receptor (Rattus norvegicus) (UniProt P32301); assay: Reversal of agonist activity at rat GLP1 receptor expressed in HEK293 cells assessed as luciferase activity at 10 uM in presence of exendin; type: functional, cell-based
T1 sequence (whole entry): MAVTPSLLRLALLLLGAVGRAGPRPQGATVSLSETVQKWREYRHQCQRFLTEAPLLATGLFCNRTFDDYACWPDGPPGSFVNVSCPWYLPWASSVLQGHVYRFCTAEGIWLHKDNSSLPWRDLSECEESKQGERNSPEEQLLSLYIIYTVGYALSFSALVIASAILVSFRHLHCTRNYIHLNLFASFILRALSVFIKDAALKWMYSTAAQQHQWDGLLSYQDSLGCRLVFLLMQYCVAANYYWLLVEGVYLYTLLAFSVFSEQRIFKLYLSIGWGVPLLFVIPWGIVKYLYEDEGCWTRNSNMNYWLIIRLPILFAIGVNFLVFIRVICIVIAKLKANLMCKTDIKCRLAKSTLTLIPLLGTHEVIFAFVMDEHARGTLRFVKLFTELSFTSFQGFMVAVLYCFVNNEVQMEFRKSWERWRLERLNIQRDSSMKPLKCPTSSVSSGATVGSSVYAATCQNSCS

[5] = Terminal half life in C57BL/6 mouse at 2 mg, ip; type: ADME, organism-based; settings: in vivo
[6] = target: T1, Glucagon-like peptide 1 receptor (Rattus norvegicus); assay: Reversal of agonist activity at rat GLP1 receptor expressed in HEK293 cells assessed as luciferase activity at 0.05 uM in presence of exendin; type: functional, cell-based
[7] = species on record: Mus musculus; assay: Effect on glucose excursion in C57BL/6-m+/+Leprdb mouse assessed as glucose tolerance normalization at 2 mg; type: functional, organism-based
[8] = target: T2, Glucagon-like peptide 1 receptor (Rattus norvegicus, UniProt P32301); assay: (§1) Displacement of [125I]GLP1 from rat GLP1 receptor expressed in HEK293 cells; type: cell-based
T2 sequence (P32301 whole entry): T1 sequence (whole entry)

[9] = system: Mus musculus; assay: Reversal of suppression of food intake in po dosed C57BL/6 mouse after 2 hrs in presence of exendin; type: functional, organism-based
[10] = species on record: Mus musculus; assay: Toxicity in C57BL/6 mouse treated upto 6 weeks; type: organism-based; settings: in vivo, 1008 h
[11] = system: Mus musculus; assay: Decrease in food intake in ip dosed C57BL/6-m+/+Leprdb mouse; type: functional; design: scale not given: the % may be the effect or the level left
[12] = Induction of glucose-induced insulin release in Sprague-Dawley rat islets at 10 uM relative to control; type: functional
[13] = system: Mus musculus; assay: Suppression of food intake in po dosed C57BL/6 mouse after 2 hrs; type: functional
[14] = species on record: Mus musculus; assay: Decrease in high density lipoprotein in C57BL/6-m+/+Leprdb mouse at 2 mg; type: functional, organism-based
[15] = species on record: Mus musculus; assay: Effect on glycemia in C57BL/6-m+/+Leprdb mouse assessed as fasting glucose normalization at 1 mg; type: functional, organism-based
[16] = target: T1, Glucagon-like peptide 1 receptor (Rattus norvegicus); assay: Agonist activity at rat GLP1 receptor expressed in HEK293 cells assessed as luciferase activity upto 10 uM relative to GLP1; type: functional, cell-based
[17] = target: T2, Glucagon-like peptide 1 receptor; assay: (§2) Agonist activity at rat GLP1 receptor expressed in HEK293 cells assessed as cAMP release; type: functional, cell-based
[18] = species on record: Mus musculus; assay: Decrease in fasting insulin in C57BL/6-m+/+Leprdb mouse at 2 mg; type: functional, organism-based
[19] = system: Mus musculus; assay: Decrease in HbA1c levels in C57BL/6-m+/+Leprdb mouse at 2 mg, ip; type: functional, organism-based
[20] = target: Glucagon-like peptide 1 receptor (Homo sapiens) (UniProt P43220); assay: Activity at human GLP1 receptor expressed in HEK293 cells; type: cell-based
[21] = species on record: Mus musculus; assay: Decrease in total cholesterol in C57BL/6-m+/+Leprdb mouse at 2 mg; type: functional, organism-based
[22] = system: Mus musculus; assay: Decrease in HbA1c levels in C57BL/6-m+/+Leprdb mouse at 1 mg, ip; type: functional, organism-based
[23] = system: HEK293; assay: Toxicity in HEK293 cells upto 300 uM by MTT assay; type: cell-based; settings: human
[24] = system: Mus musculus; assay: Reversal of suppression of food intake in ip dosed C57BL/6 mouse after 12 hrs in presence of exendin; type: functional, organism-based
[25] = species on record: Mus musculus; assay: Effect on glycemia in C57BL/6-m+/+Leprdb mouse assessed as HbA1c normalization at 2 mg; type: functional, organism-based
[26] = system: Mus musculus; assay: Suppression of food intake in C57BL/6 mouse at 2 mg, ip after 12 hrs; type: functional
[27] = system: Mus musculus; assay: Decrease in HbA1c levels in ip dosed C57BL/6-m+/+Leprdb mouse at 8 mg, ip; type: functional, organism-based
[28] = species on record: Mus musculus; assay: Effect on glycemia in C57BL/6-m+/+Leprdb mouse assessed as HbA1c normalization at 1 mg; type: functional, organism-based
[29] = Induction of glucose-induced insulin release in Sprague-Dawley rat islets at 100 uM relative to control; type: functional
[30] = target: T1, Glucagon-like peptide 1 receptor (Rattus norvegicus); assay: as §1; type: cell-based
[31] = target: T1, Glucagon-like peptide 1 receptor (Rattus norvegicus); assay: Agonist activity at rat GLP1 receptor expressed in HEK293 cells assessed as luciferase activity; type: functional, cell-based
[32] = target: T1, Glucagon-like peptide 1 receptor (Rattus norvegicus); assay: as §2; type: functional, cell-based

Sequence of Glucagon-like peptide 1 receptor (Homo sapiens) (P43220 whole entry): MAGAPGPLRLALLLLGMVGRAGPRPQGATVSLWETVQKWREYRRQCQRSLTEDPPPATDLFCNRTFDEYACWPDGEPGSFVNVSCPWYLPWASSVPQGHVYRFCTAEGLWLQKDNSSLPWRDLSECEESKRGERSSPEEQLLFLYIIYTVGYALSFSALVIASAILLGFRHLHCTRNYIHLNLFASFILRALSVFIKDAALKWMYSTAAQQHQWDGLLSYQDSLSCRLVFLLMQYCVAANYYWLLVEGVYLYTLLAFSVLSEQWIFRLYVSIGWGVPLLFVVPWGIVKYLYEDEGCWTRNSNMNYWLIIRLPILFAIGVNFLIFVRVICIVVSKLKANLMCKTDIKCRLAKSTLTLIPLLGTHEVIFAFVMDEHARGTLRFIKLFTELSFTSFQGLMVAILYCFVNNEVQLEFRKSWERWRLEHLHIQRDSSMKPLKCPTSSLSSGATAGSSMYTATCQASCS

Activity [4]: Active | half-life [5]: 7.5 h | Activity [6]: Active | Ki [8]: 1470 nM | Activity [16]: Active | EC50 [17]: 2730 nM | Activity [20]: inactive
Compound: COc1cc(C2C(NC(=O)c3ccc(NC(=O)OC(C)(C)C)cc3)(C(=O)O)C(c3ccc(OC(=O)c4cccs4)c(OC)c3)C2(NC(=O)c2ccc(NC(=O)OC(C)(C)C)cc2)C(=O)O)ccc1OC(=O)c1cccs1 (stereo not drawn)
ED50 [1]: 1.57 mg | Activity [2]: Active | Activity [3]: Active | Activity [7]: Active | Activity [9]: Active | Activity [10]: Non-toxic | Activity [11]: 24.9% | fold change (FC) [12]: 4.5 | ED50 [13]: 0.53 mg | Activity [14]: Active | Activity [15]: Active | Activity [18]: Active | Activity [19]: Active | Activity [21]: Active | Activity [22]: Active | Activity [23]: Non-toxic | Activity [24]: Active | Activity [25]: Active | Activity [26]: 54% | Activity [27]: Active | Activity [28]: Active

Activity [4]: Active | Activity [6]: Active | Ki [8]: 287 nM | Activity [16]: 37% | EC50 [17]: 1080 nM | Activity [20]: inactive
Compound: COc1cc(C2C(NC(=O)c3ccc(NC(=O)C4CCCC4)cc3)(C(=O)O)C(c3ccc(OC(=O)c4cccs4)c(OC)c3)C2(NC(=O)c2ccc(NC(=O)C3CCCC3)cc2)C(=O)O)ccc1OC(=O)c1cccs1 (stereo not drawn)
fold change (FC) [29]: 2.6

Activity [30]: Active | Activity [31]: Active | Activity [32]: Active
Compound: CCOc1cc(/C=C2\N=C(c3ccc(NC(C)=O)cc3)OC2=O)ccc1OC(=O)c1cccs1
